One data set relates to Rattus norvegicus. Conditions: for LD50: acute; for NOAEL: histopathology: nonneoplastic.
In a further data set the test system is Cyprinodon variegatus. To be noted: mortality.
The subject of another data set is Neomysis kadiakensis. Conditions: chronic/long-term; duration: 28 days; reproduction.
In the next data set the test system is Bibionidae. Conditions: chronic/long-term; duration: 28 days.
For another data set, the system named is Daphnia magna. Conditions: chronic/long-term; duration: 21 days; reproduction.
The subject of a further data set is Anas platyrhynchos. To be noted: for NOEC: reproductive.
The next data set has as its system Apis mellifera. To be noted: acute; duration: 48 hours; oral; unspecified; mortality.
In a further data set the test system is Canidae. Conditions: subchronic; duration: 90 days; oral; diet; Dog Other; clinical signs.
A further data set deals with Lolium perenne. Conditions: acute; duration: 21 days; other.
The test system of another data set is Typhlodromus pyri. Description: LR50; higher = less toxic. To be noted: acute; duration: 7 days; mortality.

Converted amounts (≈) assume the structure as drawn.

On to `CCCOc1nc2ccccc2c(=O)n1CCC` [2-Propoxy-3-propyl-4(3H)-quinazolinone], for which, in the data set on Rattus norvegicus (oral, mortality), the LD50 amounted to 2050 mg/kg-day.
Regarding `CCCOc1nc2ccc(I)cc2c(=O)n1CCC` [Proquinazid], the LC50 in the data set on Cyprinodon variegatus (acute, duration: 96 hours) is above 0.58 µg/mL; with Tagia sp. (acute, duration: 14 days, mortality), above 1000 mg/kg; with Oncorhynchus mykiss (acute, duration: 96 hours, mortality), 0.349 µg/mL (≈ 0.938 µM); in the data set with Anas platyrhynchos (short-term, oral, feed, mortality) it was 3110 mg/kg-day; with Colinus virginianus (acute, oral, diet, mortality), 1370 mg/kg-day. The NOEC in the data set with Cyprinodon variegatus (chronic/long-term, duration: 36 days) is 0.00872 mg/L; in the data set with Tagia sp. (chronic/long-term, duration: 56 days) it was above 50.9 mg/kg; in the data set with Neomysis kadiakensis, 0.0105 mg/L; in the data set with Bibionidae it was 0.465 mg/L; in the data set on Oncorhynchus mykiss (chronic/long-term, duration: 90 days, other), 0.003 mg/L; with Daphnia magna it was 0.0018 mg/L. In addition, the NOEC came to 29.6 mg/kg-day with Anas platyrhynchos (F), 31.5 mg/kg-day in the data set on Anas platyrhynchos (M) and 7.78 mg/kg-day in the data set on Colinus virginianus (reproduction developmental). For the same compound, the LD50 with Rattus norvegicus (oral, mortality) is 4850 mg/kg-day; in the data set with Apis mellifera, above 125 µg/piece; in the data set with Colinus virginianus (acute, oral, mortality) it was above 2250 mg/kg-day. Moreover, the NOAEL was 1.2 mg/kg-day with Rattus norvegicus (chronic, duration: 2 years); 2 mg/kg-day in the data set with Rattus norvegicus (subchronic, duration: 90 days, oral, diet); 19 mg/kg-day with Canidae. Also, the NOEL is above 600 mg/kg-day in the data set with Rattus norvegicus (chronic, mortality) and 35.1 mg/kg-day in the data set with Rattus norvegicus (reproduction developmental, reproduction). In the data set on Lolium perenne, the LEL turned out to be 75 g/ha. For the same compound, in the data set on Typhlodromus pyri, the LR50 turned out to be 47.9 g/ha.

Source of the values: EPA's ToxValDB 9.5 (doi:10.2903/j.efsa.2009.1350).
